The values below come from ChEMBL document CHEMBL1133774, “'3+1' mixed-ligand oxotechnetium(V) complexes with affinity for melanoma: synthesis and evaluation in vitro and in vivo” (J Med Chem, 2000).

Some results are limits rather than exact numbers.

Data set [1] can be described thus: Biodistribution after 1 hour of postinjection in melanoma/blood. The data set is classed as ADME, organism-based. The following applies: in vivo.
The nature of data set [2]: Biodistribution after 1 hour of postinjection in kidney. The conditions noted are these: in vivo. Format: ADME, organism-based.
The nature of data set [3]: Biodistribution after 1 hour of postinjection in lungs. The conditions noted are these: in vivo. Format: ADME, organism-based, Lung.
A short description of data set [4]: Biodistribution after 6 hours of postinjection in melanoma/blood. Format: ADME, organism-based. The following applies: in vivo.
Data set [5] can be described thus: Biodistribution after 6 hours of postinjection in lungs. Format: ADME, organism-based, Lung. The following applies: in vivo.
A short description of data set [6]: Biodistribution after 6 hours of postinjection in kidney. The data set is classed as ADME, organism-based. The conditions noted are these: in vivo.
Data set [7] in a line: Partition coefficient of the unprotonated free amine (logP). The data set is classed as physicochemical. The following applies: octanol/water.
The nature of data set [8]: Biodistribution after 1 hour of postinjection in brain. The data set is classed as ADME, organism-based. The conditions noted are these: in vivo.
Data set [9] in a line: Biodistribution after 1 hour of postinjection in liver. The data set is classed as ADME, organism-based. The conditions noted are these: in vivo.
Data set [10] in a line: Biodistribution after 6 hours of postinjection in melanoma. The data set is classed as ADME, organism-based. The conditions noted are these: in vivo.
Data set [11] is described as follows: aqueous ionization constant (pKa) determined by HPLC methods. The data set is classed as physicochemical. The conditions noted are these: buffer.
The nature of data set [12]: Biodistribution after 6 hours of postinjection in melanoma/lungs. The data set is classed as ADME, organism-based, Lung. The conditions noted are these: in vivo.
The nature of data set [13]: Biodistribution after 6 hours of postinjection in brain. The data set is classed as ADME, organism-based. The following applies: in vivo.
A short description of data set [14]: Biodistribution after 6 hours of postinjection in spleen. Format: ADME, organism-based. The conditions noted are these: in vivo.
Data set [15] can be described thus: Biodistribution after 1 hour of postinjection in spleen. The conditions noted are these: in vivo. The data set is classed as ADME, organism-based.
Data set [16] in a line: Biodistribution after 1 hour of postinjection in melanoma. The data set is classed as ADME, organism-based. The following applies: in vivo.
Data set [17] can be described thus: Biodistribution after 1 hour of postinjection in blood. The data set is classed as ADME, organism-based. The conditions noted are these: in vivo.
Data set [18] in a line: Biodistribution after 1 hour of postinjection in melanoma/lungs. Format: ADME, organism-based, Lung. The conditions noted are these: in vivo.
The nature of data set [19]: Biodistribution after 6 hours of postinjection in melanoma/spleen. The conditions noted are these: in vivo. The data set is classed as ADME, organism-based.
A short description of data set [20]: Biodistribution after 1 hour of postinjection in heart. The data set is classed as ADME, organism-based. The conditions noted are these: in vivo.
Data set [21] is described as follows: Partition coefficient (logD7.4). The data set is classed as physicochemical. The conditions noted are these: octanol/water, pH 7.4.
The nature of data set [22]: Biodistribution after 6 hours of postinjection in heart. The conditions noted are these: in vivo. Format: ADME, organism-based.
The nature of data set [23]: Biodistribution after 6 hours of postinjection in liver. The following applies: in vivo. The data set is classed as ADME, organism-based.
Data set [24] is described as follows: Biodistribution after 6 hours of postinjection in muscle. Format: ADME, organism-based, Muscle tissue. The following applies: in vivo.
Data set [25] in a line: Biodistribution after 6 hours of postinjection in blood. The data set is classed as ADME, organism-based. The following applies: in vivo.
Data set [26] is described as follows: Biodistribution after 1 hour of postinjection in muscle. Format: ADME, organism-based, Muscle tissue. The conditions noted are these: in vivo.
Data set [27] is described as follows: Biodistribution after 1 hour of postinjection in melanoma/spleen. The data set is classed as ADME, organism-based. The conditions noted are these: in vivo.
Data set [28] is described as follows: Biodistribution after 1 hour of postinjection in melanoma/liver. Format: ADME, organism-based. The following applies: in vivo.
Data set [29] in a line: Biodistribution after 6 hours of postinjection in melanoma/liver. The data set is classed as ADME, organism-based. The following applies: in vivo.

As usually defined, the logP is the decadic logarithm of the partition coefficient of the neutral form, usually between octanol and water. Usually pKa stands for the pH at which an ionisable group is half protonated. With “N-methyl-3-azapentane-1,5-dithiol complex [listing 1 of 6 here]”, the Ratio in [1] is given as less than 1; in data set [4] it was 1.1; in data set [12], less than 1; in data set [18] it was less than 1; in data set [19] it was 1. Besides, the ID/g in [2] was found to be 19.4%; in [3], 5.75%; in [5] it was 2.91%; in data set [6], 11.3%; in data set [8], 0.64%; in [9], 4.02%. Also, the ID/g was 1.53% in data set [10]; 0.26% in [13]; 2.91% in data set [14]; 5.57% in data set [15]; 2.16% in [16]; 2.36% in data set [17]. Also, the ID/g in data set [20] was found to be 1.26%; in data set [22], 0.83%; in [23], 1.53%. The substance further had a logP in [7] of 1.2. Further, in data set [11], the pKa turned out to be 7.2. In data set [21], this substance had a logD of 1 pH7.4.

“N-methyl-3-azapentane-1,5-dithiol complex [listing 2 of 6 here]”: the Ratio in [1] is recorded as 3.9; in [4] it was 4.2; in data set [12], 3.1; in data set [18] it was 1.9; in [19], 3.2; in [27] it was 4.3. Further, the ID/g in data set [2] was found to be 30.4%; in data set [3], 2.6%; in data set [5], 1.35%; in data set [6], 19.3%; in data set [8], 0.08%; in data set [9], 43.3%. Besides, the ID/g in data set [10] came to 4.12%; in data set [24], 0.2%; in data set [14] it was 1.3%; in [15] it was 1.15%; in data set [16], 4.95%; in [25], 0.98%. For the same substance, the ID/g is listed as 1.26% in [17]; 0.24% in data set [26]; 0.66% in data set [20]; 0.46% in [22]; 23% in data set [23]. The substance also gave a logP in data set [7] of 3.5.

Regarding “N-methyl-3-azapentane-1,5-dithiol complex [listing 3 of 6 here]”, the Ratio in data set [1] is given as 2.4; in [4] it was 2.2; in data set [12] it was 1.6; in data set [18], 1; in data set [19], 2.6; in [28], less than 1. Further, the Ratio in [29] and in [27] was less than 1 each time. For the same substance, the ID/g in data set [2] was found to be 15.3%; in data set [3], 3.27%; in data set [5], 2.07%; in data set [6], 11.7%; in data set [8] it was 0.13%; in [9] it was 35.3%. The ID/g in [10] amounted to 3.23%; in data set [13] it was 0.08%; in data set [24], 0.26%; in [14] it was 1.25%; in data set [15], 3.35%; in data set [16] it was 3.26%. The ID/g in [25] turned out to be 1.44%; in data set [17], 1.34%; in [26] it was 0.53%; in data set [20] it was 1.17%; in data set [22] it was 0.73%; in data set [23] it was 17.7%. The same substance gave a logP in [7] of 3.7. The pKa in data set [11] stood at 9.9. Moreover, the logD in data set [21] amounted to 1.1 pH7.4.

As to “N-methyl-3-azapentane-1,5-dithiol complex [listing 4 of 6 here]”, the Ratio in [1] is 1.6; in data set [4], 2.3; in data set [12] it was 1.2; in [18], 4.5; in data set [19] it was 4.5. For the same substance, the ID/g in data set [2] is 17.9%; in data set [3] it was 2.73%; in [5], 1.96%; in [6] it was 17.9%; in data set [8], 0.18%; in [9] it was 27.3%. The ID/g in data set [10] came to 3.13%; in data set [13] it was 0.14%; in data set [24] it was 0.39%; in data set [14], 0.7%; in data set [15], 3.44%; in [16], 3.23%. Moreover, the ID/g in data set [25] came to 1.35%; in [17], 2.08%; in data set [26], 0.57%; in data set [20], 1.84%; in [22] it was 0.84%; in data set [23], 18.7%. The substance further yielded a logP in data set [7] of 1.7. Moreover, the pKa in data set [11] was 9.7. The same substance had a logD in data set [21] of 0 pH7.4.

As for “N-methyl-3-azapentane-1,5-dithiol complex [listing 5 of 6 here]”, the ID/g was 13% in data set [2]; 5.73% in [3]; 3.4% in [5]; 10.1% in [6]; 0.24% in data set [8]; 7.11% in data set [9]. Further, the ID/g in [10] turned out to be 2.83%; in data set [14], 1.66%; in [15], 2.39%; in data set [16] it was 2.55%; in data set [25], 2.05%; in data set [17], 3.49%. Besides, the ID/g in data set [26] is given as 0.78%; in data set [20], 1.74%; in [22], 1.15%; in data set [23] it was 6.1%. For the same substance, the Ratio in data set [4] worked out at 1.4; in data set [19], 1.7; in data set [27], 1.1. For the same substance, the logP in [7] came out at 2.7. Further, the pKa in data set [11] is reported as 8.3. In data set [21], this substance registered a logD of 1.6 pH7.4.

In the case of “N-methyl-3-azapentane-1,5-dithiol complex [listing 6 of 6 here]”, the ID/g in data set [2] is 24%; in [3] it was 13.2%; in data set [5], 5.5%; in [6], 12.9%; in data set [8], 0.32%; in data set [9], 16.6%. The ID/g in data set [10] is recorded as 1.39%; in [13] it was 0.13%; in data set [14] it was 1.44%; in [15], 6.04%; in data set [16], 2.88%; in data set [25], 1.3%. Moreover, the ID/g in data set [17] is given as 3.28%; in [20] it was 2.09%; in data set [22], 0.86%; in data set [23] it was 7.23%. Further, in data set [7], the logP came out at 3.6. In [11], the pKa is reported as 9.6. Also, the Ratio in [19] is reported as less than 1. This substance yielded a logD in [21] of 0.95 pH7.4.
